From ChEMBL document CHEMBL1821711, “Design and synthesis of novel arylpiperazine derivatives containing the imidazole core targeting 5-HT(2A) receptor and 5-HT transporter” (J Med Chem, 2011)

How the values were obtained:
[1] = target: T1, 5-hydroxytryptamine receptor 2C (Homo sapiens, UniProt P28335); assay: biochemical; type: cell-based, CHO-K1
T1 sequence (P28335 whole entry): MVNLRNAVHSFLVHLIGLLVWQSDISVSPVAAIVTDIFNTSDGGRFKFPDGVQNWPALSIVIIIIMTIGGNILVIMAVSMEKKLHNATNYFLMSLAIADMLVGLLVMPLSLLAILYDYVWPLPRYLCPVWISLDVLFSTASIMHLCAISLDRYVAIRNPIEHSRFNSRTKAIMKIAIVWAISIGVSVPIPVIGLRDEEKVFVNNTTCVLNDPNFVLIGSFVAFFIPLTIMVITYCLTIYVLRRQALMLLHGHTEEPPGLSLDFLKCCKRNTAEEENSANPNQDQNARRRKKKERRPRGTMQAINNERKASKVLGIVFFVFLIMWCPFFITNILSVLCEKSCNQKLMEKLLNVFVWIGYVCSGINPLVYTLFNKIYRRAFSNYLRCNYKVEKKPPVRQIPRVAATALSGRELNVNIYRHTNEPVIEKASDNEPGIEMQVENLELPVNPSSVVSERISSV
Description: Displacement of [3H]mesulergine from human recombinant 5-HT2C receptor expressed in CHO-K1 cells

[2] = target: Cytochrome P450 2D6 (Homo sapiens, UniProt P10635)
Description: Inhibition of human recombinant CYP2D6 by luceferin-based assay

[3] = in vitro; conditions: mouse, ht-22
Description: Cytotoxicity against mouse HT22 cells after 48 hrs by MTT assay

[4] = target: Cytochrome P450 3A4 (Homo sapiens, UniProt P08684)
Description: Inhibition of human recombinant CYP3A4 by luceferin-based assay

[5] = target: T2, Cytochrome P450 1A2 (Homo sapiens, UniProt P05177)
T2 sequence (P05177 whole entry): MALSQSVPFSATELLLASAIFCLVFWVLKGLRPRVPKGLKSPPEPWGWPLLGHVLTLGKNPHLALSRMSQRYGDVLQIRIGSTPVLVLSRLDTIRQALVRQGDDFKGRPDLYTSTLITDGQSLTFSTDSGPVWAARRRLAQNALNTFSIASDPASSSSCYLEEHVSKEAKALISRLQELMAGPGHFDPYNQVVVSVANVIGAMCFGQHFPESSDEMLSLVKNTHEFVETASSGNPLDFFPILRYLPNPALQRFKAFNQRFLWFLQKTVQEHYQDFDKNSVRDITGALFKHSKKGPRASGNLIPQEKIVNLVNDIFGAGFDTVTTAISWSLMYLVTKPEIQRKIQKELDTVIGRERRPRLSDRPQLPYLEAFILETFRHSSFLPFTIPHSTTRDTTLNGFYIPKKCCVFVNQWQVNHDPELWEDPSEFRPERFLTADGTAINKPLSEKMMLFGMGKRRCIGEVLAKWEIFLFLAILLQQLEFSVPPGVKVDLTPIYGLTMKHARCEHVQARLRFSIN
Description: Inhibition of human recombinant CYP1A2 by luceferin-based assay

[6] = target: Cytochrome P450 2C9 (Homo sapiens, UniProt P11712)
Description: Inhibition of human recombinant CYP2C9 by luceferin-based assay

[7] = target: 5-hydroxytryptamine receptor 6 (Homo sapiens, UniProt P50406)
Description: Inhibition of 5HT6 receptor by competition binding assay

[8] = target: T3, D(4) dopamine receptor (Homo sapiens, UniProt P21917)
T3 sequence (P21917 whole entry): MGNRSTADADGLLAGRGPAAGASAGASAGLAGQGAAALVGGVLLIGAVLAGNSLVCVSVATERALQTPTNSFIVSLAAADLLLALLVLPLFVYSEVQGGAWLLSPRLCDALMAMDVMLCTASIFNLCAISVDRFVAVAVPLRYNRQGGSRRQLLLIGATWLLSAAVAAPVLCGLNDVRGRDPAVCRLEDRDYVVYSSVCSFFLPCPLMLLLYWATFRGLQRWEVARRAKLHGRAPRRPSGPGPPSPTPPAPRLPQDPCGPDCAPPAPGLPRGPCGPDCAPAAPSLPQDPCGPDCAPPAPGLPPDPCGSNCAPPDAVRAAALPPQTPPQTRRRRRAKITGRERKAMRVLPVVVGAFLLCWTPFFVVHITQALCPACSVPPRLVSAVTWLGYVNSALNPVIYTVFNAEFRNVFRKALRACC
Description: inhibition of dopamine D4 receptor by competition binding assay

[9] = target: D(3) dopamine receptor (Homo sapiens, UniProt P35462)
Description: Inhibition of dopamine D3 receptor by competition binding assay

[10] = target: 5-hydroxytryptamine receptor 7 (Homo sapiens, UniProt P34969)
Description: Inhibition of 5HT7 receptor by competition binding assay

[11] = target: T4, 5-hydroxytryptamine receptor 1A (Homo sapiens, UniProt P08908)
T4 sequence (P08908 whole entry): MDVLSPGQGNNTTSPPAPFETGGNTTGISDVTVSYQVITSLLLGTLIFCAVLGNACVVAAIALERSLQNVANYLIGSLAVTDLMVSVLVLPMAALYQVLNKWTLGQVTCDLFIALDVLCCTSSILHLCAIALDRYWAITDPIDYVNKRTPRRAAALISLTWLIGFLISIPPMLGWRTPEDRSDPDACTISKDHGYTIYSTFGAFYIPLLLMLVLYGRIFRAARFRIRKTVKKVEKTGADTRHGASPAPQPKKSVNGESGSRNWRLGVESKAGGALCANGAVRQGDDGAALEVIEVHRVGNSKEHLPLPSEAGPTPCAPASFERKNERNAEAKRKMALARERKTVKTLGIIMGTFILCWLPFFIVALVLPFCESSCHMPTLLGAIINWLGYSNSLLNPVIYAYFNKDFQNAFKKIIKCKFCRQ
Description: Inhibition of 5HT1A receptor by competition binding assay

[12] = target: D(2) dopamine receptor (Homo sapiens, UniProt P14416)
Chain of D(2) dopamine receptor (P14416 whole entry): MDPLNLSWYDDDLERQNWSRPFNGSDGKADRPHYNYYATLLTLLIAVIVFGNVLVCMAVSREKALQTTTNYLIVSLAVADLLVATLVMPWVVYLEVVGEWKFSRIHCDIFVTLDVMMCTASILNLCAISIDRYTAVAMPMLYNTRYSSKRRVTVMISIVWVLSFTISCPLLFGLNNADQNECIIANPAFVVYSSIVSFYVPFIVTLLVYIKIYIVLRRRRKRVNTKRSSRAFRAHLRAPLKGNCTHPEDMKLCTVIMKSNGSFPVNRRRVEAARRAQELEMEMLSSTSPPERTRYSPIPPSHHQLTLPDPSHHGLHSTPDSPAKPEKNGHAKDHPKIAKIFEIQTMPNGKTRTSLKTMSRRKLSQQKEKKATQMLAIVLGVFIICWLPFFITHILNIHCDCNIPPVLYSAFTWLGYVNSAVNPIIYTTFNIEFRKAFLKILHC
Description: Inhibition of dopamine D2 receptor by competition binding assay

Chain of Cytochrome P450 2C9 (P11712 whole entry): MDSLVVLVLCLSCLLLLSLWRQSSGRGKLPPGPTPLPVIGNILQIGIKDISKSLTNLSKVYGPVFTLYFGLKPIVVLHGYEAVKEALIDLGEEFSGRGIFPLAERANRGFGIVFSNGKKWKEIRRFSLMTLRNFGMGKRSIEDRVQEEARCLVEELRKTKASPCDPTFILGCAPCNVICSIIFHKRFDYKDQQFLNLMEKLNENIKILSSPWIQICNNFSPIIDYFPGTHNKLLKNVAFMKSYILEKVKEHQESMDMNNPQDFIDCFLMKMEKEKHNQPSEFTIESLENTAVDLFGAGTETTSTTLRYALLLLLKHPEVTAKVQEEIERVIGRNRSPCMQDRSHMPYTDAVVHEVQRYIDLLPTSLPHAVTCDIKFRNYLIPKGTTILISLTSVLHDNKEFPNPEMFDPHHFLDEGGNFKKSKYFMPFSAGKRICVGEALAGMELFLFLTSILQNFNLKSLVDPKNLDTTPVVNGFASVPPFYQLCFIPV
Chain of Cytochrome P450 2D6 (P10635 whole entry): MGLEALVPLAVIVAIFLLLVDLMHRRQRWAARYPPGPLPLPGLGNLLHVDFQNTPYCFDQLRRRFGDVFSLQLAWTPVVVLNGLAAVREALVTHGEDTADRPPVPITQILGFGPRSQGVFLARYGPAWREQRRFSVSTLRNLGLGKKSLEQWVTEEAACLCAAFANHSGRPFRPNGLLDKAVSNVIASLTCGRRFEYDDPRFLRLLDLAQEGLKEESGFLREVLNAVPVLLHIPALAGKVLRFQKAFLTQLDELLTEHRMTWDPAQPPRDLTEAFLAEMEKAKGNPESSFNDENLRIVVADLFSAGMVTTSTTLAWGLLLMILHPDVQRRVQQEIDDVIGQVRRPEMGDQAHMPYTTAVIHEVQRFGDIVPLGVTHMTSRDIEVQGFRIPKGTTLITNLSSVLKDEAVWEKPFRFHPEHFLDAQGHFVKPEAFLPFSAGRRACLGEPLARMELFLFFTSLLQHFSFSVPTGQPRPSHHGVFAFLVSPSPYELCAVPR
Chain of Cytochrome P450 3A4 (P08684 whole entry): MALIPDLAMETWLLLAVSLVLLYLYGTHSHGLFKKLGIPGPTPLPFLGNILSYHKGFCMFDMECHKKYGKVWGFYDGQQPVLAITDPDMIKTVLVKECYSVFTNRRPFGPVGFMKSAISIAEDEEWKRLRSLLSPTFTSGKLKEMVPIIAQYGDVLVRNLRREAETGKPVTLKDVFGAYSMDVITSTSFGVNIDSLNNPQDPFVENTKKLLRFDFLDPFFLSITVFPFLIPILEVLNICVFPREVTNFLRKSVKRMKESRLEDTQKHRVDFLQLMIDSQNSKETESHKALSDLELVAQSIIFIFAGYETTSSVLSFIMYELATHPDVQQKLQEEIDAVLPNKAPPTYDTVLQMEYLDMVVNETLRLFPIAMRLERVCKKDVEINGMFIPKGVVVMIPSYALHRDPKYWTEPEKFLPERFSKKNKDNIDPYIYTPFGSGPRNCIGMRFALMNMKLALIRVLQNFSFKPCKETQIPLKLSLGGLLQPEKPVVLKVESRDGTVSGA
Chain of 5-hydroxytryptamine receptor 6 (P50406 whole entry): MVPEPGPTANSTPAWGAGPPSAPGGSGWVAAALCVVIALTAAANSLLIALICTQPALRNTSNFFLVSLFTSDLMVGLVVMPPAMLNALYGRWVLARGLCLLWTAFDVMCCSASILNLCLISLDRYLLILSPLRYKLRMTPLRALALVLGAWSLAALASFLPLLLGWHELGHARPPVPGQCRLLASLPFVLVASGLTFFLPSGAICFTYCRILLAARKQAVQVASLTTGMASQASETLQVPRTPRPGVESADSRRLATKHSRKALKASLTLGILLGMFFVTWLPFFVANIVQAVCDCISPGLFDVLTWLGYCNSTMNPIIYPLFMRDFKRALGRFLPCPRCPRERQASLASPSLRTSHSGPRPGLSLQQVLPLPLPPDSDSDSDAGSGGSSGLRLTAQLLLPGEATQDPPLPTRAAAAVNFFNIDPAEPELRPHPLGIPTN
Chain of 5-hydroxytryptamine receptor 7 (P34969 whole entry): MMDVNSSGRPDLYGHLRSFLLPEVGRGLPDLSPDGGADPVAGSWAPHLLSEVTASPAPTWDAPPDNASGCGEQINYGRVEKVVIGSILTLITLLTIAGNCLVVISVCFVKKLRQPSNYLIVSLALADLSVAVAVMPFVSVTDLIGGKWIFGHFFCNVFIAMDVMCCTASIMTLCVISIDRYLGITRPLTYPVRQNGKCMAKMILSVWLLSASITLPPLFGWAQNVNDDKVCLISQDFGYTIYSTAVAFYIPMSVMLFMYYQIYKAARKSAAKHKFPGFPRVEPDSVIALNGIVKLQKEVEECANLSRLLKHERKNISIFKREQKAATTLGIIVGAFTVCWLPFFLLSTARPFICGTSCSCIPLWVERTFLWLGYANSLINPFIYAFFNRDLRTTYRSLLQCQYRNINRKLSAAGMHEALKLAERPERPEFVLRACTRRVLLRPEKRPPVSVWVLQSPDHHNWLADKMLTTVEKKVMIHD
Chain of D(3) dopamine receptor (P35462 whole entry): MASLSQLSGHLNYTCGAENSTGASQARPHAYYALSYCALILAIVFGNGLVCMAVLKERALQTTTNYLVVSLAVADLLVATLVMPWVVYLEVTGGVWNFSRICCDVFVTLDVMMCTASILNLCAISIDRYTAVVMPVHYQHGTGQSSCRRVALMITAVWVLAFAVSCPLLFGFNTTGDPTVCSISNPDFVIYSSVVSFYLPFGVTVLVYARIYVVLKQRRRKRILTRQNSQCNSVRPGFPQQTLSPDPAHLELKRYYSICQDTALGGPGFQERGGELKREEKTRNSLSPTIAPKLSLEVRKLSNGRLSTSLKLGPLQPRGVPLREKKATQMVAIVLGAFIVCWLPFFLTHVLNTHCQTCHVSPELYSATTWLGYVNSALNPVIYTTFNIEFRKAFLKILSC

IC50 [1] | SMILES | also measured
1000 nM | CCCc1nc(C(=O)NCC(O)CN2CCN(c3cccc(C)c3C)CC2)c(C)n1-c1ccc(F)cc1 (stereo not drawn) | 
68 nM | CCCc1nc(C(=O)NCCCN2CCN(c3cccc(C)c3C)CC2)c(C)n1-c1ccc(F)cc1 | 
64 nM | COc1ccc(-n2c(-c3ccccc3)nc(C(=O)NCCCN3CCN(c4cccc(Cl)c4Cl)CC3)c2C)cc1 | 
189 nM | CCCc1nc(C(=O)NCCCN2CCN(c3cccc(Cl)c3Cl)CC2)c(C)n1-c1ccccc1F | 
191 nM | COc1ccc(-n2c(C)nc(C(=O)NCCCN3CCN(c4cccc(C)c4C)CC3)c2C)cc1 | 
104 nM | COc1ccc(-n2cc(C(=O)NCCCN3CCN(c4cccc(C)c4C)CC3)nc2-c2ccccc2)cc1 | 
68 nM | Cc1cccc(N2CCN(CCCNC(=O)c3nc(-c4ccccc4)n(-c4ccc5c(c4)OCCO5)c3C)CC2)c1C | 
64 nM | Cc1c(C(=O)NCC(O)CN2CCN(c3cccc(Cl)c3Cl)CC2)nc(-c2ccccc2)n1-c1ccc(F)cc1 (stereo not drawn) | 
610 nM | Cc1cccc(N2CCN(CC(O)CNC(=O)c3nc(C)n(-c4ccc5c(c4)OCCO5)c3C)CC2)c1C (stereo not drawn) | 
185 nM | Cc1c(C(=O)NCCCN2CCN(c3cccc(Cl)c3Cl)CC2)nc(-c2ccccc2)n1-c1ccccc1F | 
1370 nM | Cc1c(Cl)cccc1N1CCN(CCCNC(=O)c2nc(-c3ccccc3)n(-c3ccccc3)c2Cn2cncn2)CC1 | IC50 [2]: 4800 nM; CC50 at 48 h [3]: 19100 nM; IC50 [4]: > 20000 nM; IC50 [5]: 15300 nM; IC50 [6]: 3300 nM
593 nM | CCCc1nc(C(=O)NCC(O)CN2CCN(c3cccc(C)c3C)CC2)c(C)n1-c1ccc2c(c1)OCCO2 (stereo not drawn) | 
233 nM | Cc1cccc(N2CCN(CCCNC(=O)c3nc(C)n(-c4ccc(Cl)cc4)c3C)CC2)c1C | 
367 nM | CCCc1nc(C(=O)NCCCN2CCN(c3cccc(Cl)c3C)CC2)cn1-c1ccc(Cl)cc1 | 
1510 nM | CCCc1nc(C(=O)NCC(O)CN2CCN(c3cccc(Cl)c3Cl)CC2)c(C)n1-c1ccc(F)cc1 (stereo not drawn) | 
185 nM | Cc1cccc(N2CCN(CC(O)CNC(=O)c3nc(-c4ccccc4)n(-c4ccc(F)cc4)c3C)CC2)c1C (stereo not drawn) | 
238 nM | CCCc1nc(C(=O)NCCCN2CCN(c3cccc(C)c3C)CC2)cn1-c1ccc(F)cc1 | 
459 nM | Cc1nc(C(=O)NCC(O)CN2CCN(c3cccc(Cl)c3Cl)CC2)c(C)n1-c1ccccc1F (stereo not drawn) | 
297 nM | CCCc1nc(C(=O)NCCCN2CCN(c3cccc(Cl)c3Cl)CC2)c(C)n1-c1ccc2c(c1)OCCO2 | 
609 nM | COc1ccc(-n2c(-c3ccccc3)nc(C(=O)NCC(O)CN3CCN(c4cccc(C)c4C)CC3)c2C)cc1 (stereo not drawn) | 
286 nM | CCCc1nc(C(=O)NCCCN2CCN(c3cccc(C)c3C)CC2)c(C)n1-c1ccccc1 | 
 | Cc1nc(C(=O)NCCCN2CCN(c3cccc(Cl)c3Cl)CC2)c(C)n1-c1ccccc1 | IC50 [7]: 136 nM; IC50 [8]: > 10000 nM; IC50 [9]: 493 nM; IC50 [10]: 11 nM; IC50 [11]: 4.9 nM; IC50 [12]: 1370 nM
383 nM | CCCc1nc(C(=O)NCCCN2CCN(c3cccc(Cl)c3Cl)CC2)c(C)n1-c1ccccc1OC | 
473 nM | CCCc1nc(C(=O)NCCCN2CCN(c3cccc(Cl)c3C)CC2)c(C)n1-c1ccccc1OC | 
96 nM | COc1ccc(-n2c(-c3ccccc3)nc(C(=O)NCCCN3CCN(c4cccc(C)c4C)CC3)c2C)cc1 | 
139 nM | Cc1nc(C(=O)NCCCN2CCN(c3cccc(Cl)c3Cl)CC2)c(C)n1C1CCCC1 | 

IC50 [1] | SMILES | also measured
229 nM | CCCc1nc(C(=O)NCCCN2CCN(c3cccc(Cl)c3C)CC2)c(C)n1-c1ccc(F)cc1 | 
116 nM | Cc1cccc(N2CCN(CCCNC(=O)c3cn(-c4ccccc4)c(-c4ccccc4)n3)CC2)c1C | 
166 nM | Cc1c(Cl)cccc1N1CCN(CC(O)CNC(=O)c2nc(C)n(C3CCCC3)c2C)CC1 (stereo not drawn) | 
546 nM | COc1ccc(-n2c(C)nc(C(=O)NCC(O)CN3CCN(c4cccc(C)c4C)CC3)c2C)cc1 (stereo not drawn) | 
526 nM | COc1ccc(-n2c(-c3ccccc3)nc(C(=O)NCC(O)CN3CCN(c4cccc(Cl)c4C)CC3)c2C)cc1 (stereo not drawn) | 
604 nM | CCCc1nc(C(=O)NCCCN2CCN(c3cccc(Cl)c3C)CC2)c(C)n1-c1ccccc1 | 
64.1 nM | Cc1cccc(N2CCN(CCCNC(=O)c3nc(-c4ccccc4)n(-c4ccc(F)cc4)c3C)CC2)c1C | 
155 nM | Cc1nc(C(=O)NCCCN2CCN(c3cccc(Cl)c3Cl)CC2)c(C)n1-c1ccccc1C(F)(F)F | 
113 nM | Cc1c(Cl)cccc1N1CCN(CCCNC(=O)c2nc(C)n(-c3ccc(F)cc3)c2C)CC1 | 
235 nM | CCCc1nc(C(=O)NCCCN2CCN(c3cccc(C)c3C)CC2)c(C)n1-c1ccccc1Cl | 
106 nM | Cc1c(Cl)cccc1N1CCN(CCCNC(=O)c2nc(C)n(-c3ccc4c(c3)OCCO4)c2C)CC1 | 
739 nM | Cc1c(Cl)cccc1N1CCN(CC(O)CNC(=O)c2nc(-c3ccccc3)n(-c3ccccc3)c2C)CC1 (stereo not drawn) | 
661 nM | CCCc1nc(C(=O)NCC(O)CN2CCN(c3cccc(C)c3C)CC2)c(C)n1-c1ccc(Cl)cc1 (stereo not drawn) | 
663 nM | Cc1c(Cl)cccc1N1CCN(CC(O)CNC(=O)c2nc(C)n(-c3ccc4c(c3)OCCO4)c2C)CC1 (stereo not drawn) | 
2240 nM | Cc1c(Cl)cccc1N1CCN(CCCNC(=O)c2nc(-c3ccccc3)n(-c3ccc(F)cc3)c2C)CC1 | 
4370 nM | Cc1c(Cl)cccc1N1CCN(CCCNC(=O)c2nc(C)n(C3CCCC3)c2C)CC1 | 
77 nM | COc1ccc(-n2c(-c3ccccc3)nc(C(=O)NCCCN3CCN(c4cccc(Cl)c4C)CC3)c2C)cc1 | 
323 nM | COc1ccc(-n2c(C)nc(C(=O)NCC(O)CN3CCN(c4cccc(Cl)c4C)CC3)c2C)cc1 (stereo not drawn) | 
61 nM | CCCc1nc(C(=O)NCCCN2CCN(c3cccc(Cl)c3C)CC2)c(C)n1-c1ccc2c(c1)OCCO2 | 
198 nM | CCCn1c(C)nc(C(=O)NCCCN2CCN(c3cccc(Cl)c3Cl)CC2)c1C | 
193 nM | Cc1cccc(N2CCN(CCCNC(=O)c3nc(-c4ccccc4)n(-c4ccccc4)c3C)CC2)c1C | 
1510 nM | Cc1c(Cl)cccc1N1CCN(CCCNC(=O)c2nc(-c3ccccc3)n(-c3ccccc3)c2C)CC1 | IC50 [2]: 5400 nM; CC50 at 48 h [3]: 23600 nM; IC50 [4]: > 20000 nM; IC50 [5]: > 20000 nM; IC50 [6]: 2900 nM
283 nM | CCCc1nc(C(=O)NCCCN2CCN(c3cccc(C)c3C)CC2)c(C)n1-c1ccccc1OC | 
556 nM | Cc1c(Cl)cccc1N1CCN(CC(O)CNC(=O)c2nc(C)n(-c3cccc(Cl)c3)c2C)CC1 (stereo not drawn) | 
> 10000 nM | CCCn1c(C)nc(C(=O)NCC(O)CN2CCN(c3cccc(C)c3C)CC2)c1C (stereo not drawn) | 

SMILES | IC50 [1] | also measured
Cc1c(Cl)cccc1N1CCN(CCCNC(=O)c2nc(C)n(CC(C)C)c2C)CC1 | 2220 nM | 
CCCc1nc(C(=O)NCCCN2CCN(c3cccc(Cl)c3C)CC2)c(C)n1-c1ccc(OC)cc1 | 204 nM | 
